This experiment has as its system PC-12 cell. The following applies: flow rate 3.24 mm/s, scanning speed 250 μm/s. The source says: The flow rate was 3.24 mm/s and the cell scanning speed was 250 μm/s.
The width of each channel is 100 μm, the thickness is 50 μm, and the interchannel spacing is 25 μm. The procedure used for fabricating the microchannels and for patch clamping are identical to that described in Example 2 (see above). The patch clamped cell used was a PC-12 cell, which was placed between 10 to 20 micrometers away from the outlets of the microchannels. Channels 1, 3, 5 and 7 were filled with PBS buffer, while channels 2, 4 and 6 were filled with acetylcholine. The flow rate of the fluid streams was 6.8 mm/s.
The channel structure and experimental setup used in Example 3 can be used to carry out dose-response measurements, in which the concentrations of the ligands in each of the ligand streams differ by predetermined amounts. […] In this 7-channel structure, channels 1, 3, 5 and 7 were filled with PBS buffer, whereas channels 2, 4, and 6 were filled with 1 μM, 12 μM, and 200 μM nicotine, respectively. The flow rate used was 3.24 mm/s and the cell-scanning speed was 250 μm/s. The patch-clamped cell was placed between 10 to 20 μm away from the outlet of the microchannel.

The text below walks through data of patent publication US20060078961A1, “Systems and methods for rapidly changing the solution environment around sensors” (priority 2002, published 2006).

Regarding `CN1CCCC1c1cccnc1` (stereo not drawn) [nicotine], the Whole-cell current response result (1 μM nicotine) was “barely discernible”. Also, the Whole-cell current peak entry (12 μM nicotine) is “detected with good signal-to-noise ratio”. Further, the “Current peak at 200 μM relative to peak for 12 μM” value (200 μM vs 12 μM nicotine) was 15 to 20 times.
